The target in assay [1] is Neuronal acetylcholine receptor. Put plainly: Binding affinity for Nicotinic acetylcholine receptor site in rat cortex was determined using [3H]MCC as radioligand.
The target of assay [2] is Muscarinic acetylcholine receptor. Put plainly: Binding affinity for muscarinic receptor site in rat hippocampus was determined using competitive radioligand binding assays employing [3H]OXO-M. The assay is classed as tissue-based.
Assay [3] in a line: Selectivity for nicotinic agonist activity was determined between Ki for [3H]-OXO-M and to that for [3H]MCC. The assay is classed as functional.
Assay [4] is filed under the species Rattus norvegicus. Briefly: (§1) Effect of compound on accumulation of dopamine metabolite dihydroxyphenyl acetic acid (DOPAC) in nucleus accumbens. Format: functional, organism-based.
Assay [5] is filed under the species Rattus norvegicus. Briefly: (§2) Effect of compound on accumulation of dopamine metabolite dihydroxyphenyl acetic acid (DOPAC) in rat striatum. Format: functional, organism-based.
The species named for assay [6] is Rattus norvegicus. Briefly: (§3) Effect of compound on accumulation of homovanillic acid (HVA) in nucleus accumbens. Format: functional, organism-based.
The species entered for assay [7] is Rattus norvegicus. Briefly: (§4) Effect of compound on accumulation of homovanillic acid (HVA) in rat striatum. The assay is classed as functional, organism-based.
For assay [8], the species on record is Rattus norvegicus. Described as §1. The assay is classed as functional.
For assay [9], the species on record is Rattus norvegicus. The assay is described as §2. The assay is classed as functional.
The species entered for assay [10] is Rattus norvegicus. Described as §3. Format: functional.
For assay [11], the species on record is Rattus norvegicus. The description is as §4. The assay is classed as functional.

Each structure is given as a SMILES string. Some results are limits rather than exact numbers.

The term Ki denotes a measure of affinity in units of concentration, obtained from inhibition or displacement. Consider `CC(=O)C1=CCN(C)CC1`, for which the Ki is 48.4 nM in assay [1] and 5425 nM in assay [2]. Also, in [3], the Selectivity was determined as 112.

In [1], `COC(=O)C1=CCCN(C)C1` [ARECOLINE] registered a Ki of 224 nM.

For `CC#CC(=O)C1=CCCN(C)C1`, the results for the Ki in assay [1] and in assay [2] were 5.8 nM and 1650 nM, respectively. In addition, the Concentration worked out at 1.79 nM/g in assay [4], 1.8 nM/g in assay [5], 0.88 nM/g in assay [6] and 1.21 nM/g in assay [7]. Also, the Control in assay [8] was determined as 129%; in assay [9], 115%; in [10], 159%; in [11], 135%. Moreover, the Selectivity in [3] was found to be 284.

Consider `CN1CC=C(C(=O)Cc2ccccc2)CC1`, for which the Ki in assay [1] was found to be 946 nM; in assay [2] it was 3500 nM. The same compound displayed a Selectivity in assay [3] of 4.

Regarding `CC#CC(=O)C1=CCN(C)CC1`, the Ki in assay [1] was 22 nM; in [2], 2690 nM. Moreover, the Concentration is 1.66 nM/g in [4], 1.91 nM/g in [5], 0.73 nM/g in assay [6] and 1.25 nM/g in [7]. Also, the Control stood at 120% in assay [8], 123% in [9], 132% in [10] and 140% in assay [11]. The compound further showed a Selectivity in assay [3] of 122.

As to `CCCC(=O)C1=CCN(C)CC1`, the Ki in assay [1] was 67.3 nM; in assay [2], greater than 5000 nM. Moreover, the Selectivity in assay [3] is greater than 74.

For `CCCCC(=O)C1=CCN(C)CC1`, the Ki was 149 nM in assay [1] and 4345 nM in assay [2]. In [3], the Selectivity came to 29.

On to `CN1CC=C(C(=O)C(C)(C)C)CC1`, for which the Ki was found to be 56.7 nM in [1] and 6250 nM in [2]. Moreover, the Selectivity in [3] was 110.

For the compound `CCC(=O)C1=CCN(C)CC1`, the figures for the Ki in assay [1] and in assay [2] were 25.7 nM and greater than 5000 nM, respectively. Besides, the Selectivity in [3] was greater than 195.

Take `CC(=O)C1=CCCN(C)C1`: the results for the Ki in [1] and in [2] were 32.7 nM and 4380 nM, respectively. This compound showed a Selectivity in [3] of 134.

For the compound `CCC(=O)C1=CCCN(C)C1` [ARECOLON], the Ki stood at 5.8 nM in assay [1] and 1950 nM in [2]. Besides, in [3], the Selectivity was found to be 336.

For `CN1CCC[C@H]1c1cccnc1` [NICOTINE], the Concentration in [4] turned out to be 2 nM/g; in [5] it was 2.18 nM/g; in assay [6], 0.86 nM/g; in assay [7], 134 nM/g. The Control is recorded as 144% in [8], 140% in [9], 157% in assay [10] and 151% in assay [11].

`CN1CCC=C(C(=O)Cc2ccccc2)C1`: the values for the Ki in assay [1] and in assay [2] were 123 nM and 1885 nM, respectively. Besides, the Selectivity in [3] was determined as 15.

For the compound `CCCC(=O)C1=CCCN(C)C1`, the values for the inhibition constant Ki in assay [1] and in assay [2] were 13.1 nM and 2730 nM, respectively. In assay [3], this compound gave a Selectivity of 208.

As for `CCCCC(=O)C1=CCCN(C)C1`, the Ki in assay [1] came to 61.3 nM; in assay [2], 1385 nM. In [3], this compound displayed a Selectivity of 23.

In the case of `CN1CCC=C(C(=O)c2ccccc2)C1`, the Ki came to 178 nM in assay [1] and 2450 nM in assay [2]. The compound also registered a Selectivity in assay [3] of 14.

As for `CN1CC=C(C(=O)c2ccccc2)CC1`, the results for the Ki in assay [1] and in [2] were 766 nM and 3750 nM, respectively. Moreover, in assay [3], the Selectivity came out at 5.

The values above are taken from ChEMBL document CHEMBL1127247, “Isoarecolones and arecolones: selective central nicotinic agonists that cross the blood-brain barrier” (Bioorg Med Chem Lett, 1994).
